Reference: patent US7094869B2, “Low molecular weight peptidomimetic growth hormone secretagogues” (Genentech, Inc., priority 1994, dated 2006)
pEC50: −log10 of the molar value. Read-outs that look alike come from different tables or passages of the source. Non-standard residues stand in square brackets, D forms with d. Residues, ends and D or L forms follow the SMILES beside them. ξ: configuration not given here. *: point of attachment. dNMe2Nal = CN[C@H](Cc1ccc2ccccc2c1)C(=O)O; d2Nal = N[C@H](Cc1ccc2ccccc2c1)C(=O)O; ξNMe2Nal = CNC(Cc1ccc2ccccc2c1)C(=O)O; ξ2Nal = NC(Cc1ccc2ccccc2c1)C(=O)O; αMeF = C[C@](N)(Cc1ccccc1)C(=O)O; Tic = O=C(O)[C@@H]1Cc2ccccc2CN1; Phe(ol) = N[C@H](CO)Cc1ccccc1; NHPhenethyl = c1ccc(CCN*)cc1; dNle = CCCC[C@@H](N)C(=O)O; Inp = O=C(O)C1CCNCC1; ξK = NCCCCC(N)C(=O)O; Ahp = NCCCCCCC(=O)O; Ahx = NCCCCCC(=O)O; Ava = NCCCCC(=O)O; GABA = NCCCC(=O)O

Assays:
growth hormone secretion = assay: GHRP induced growth hormone secretion, intravenous administration (Rat IV); type: in vivo; details: iv injection, serum GH 10 min after injection
Procedure: Immature weanling female Sprague Dawley rats were purchased from Charles River Labs (Portage, […].) and group housed with water and food available ad libitum. When the rats were 24-30 days old (weighing 50-90 g) they were anesthetized with pentobarbitone (4 mg in 0.5 ml, approximately 60 mg/kg) given by intraperitoneal injection. The rats were then placed briefly on a heated pad, to distend their tail veins, and given an intravenous tail vein injection of the peptides 20 minutes after receiving the anesthetic. The intravenous injection was of 0.1 ml using a 1 ml syringe. The injections contained graded doses of peptides or the vehicle (vehicle for all peptides given intravenously was a buffer of 20 mM sodium acetate, 45 g/l mannitol, pH 5.0). Ten minutes after the intravenous injection blood was taken by cardiac puncture, using a 3 ml syringe, and the rats were then sacrificed.
The blood was then clotted on ice, centrifuged, serum decanted and frozen for subsequent analysis using the rat GH ELISA described elsewhere in the application. For the rat GH ELISA the serum was diluted 1:50 or 1:250, depending on the expected serum GH concentrations achieved, and assayed in duplicate.

rat pituitary cells = rat pituitary cells (Rattus norvegicus, UniProt O08725); details: read-out: PIT Cell EC50, GH release, 15 min incubation
rat pituitary cells, sequence (O08725 whole entry, the tested form may be a part): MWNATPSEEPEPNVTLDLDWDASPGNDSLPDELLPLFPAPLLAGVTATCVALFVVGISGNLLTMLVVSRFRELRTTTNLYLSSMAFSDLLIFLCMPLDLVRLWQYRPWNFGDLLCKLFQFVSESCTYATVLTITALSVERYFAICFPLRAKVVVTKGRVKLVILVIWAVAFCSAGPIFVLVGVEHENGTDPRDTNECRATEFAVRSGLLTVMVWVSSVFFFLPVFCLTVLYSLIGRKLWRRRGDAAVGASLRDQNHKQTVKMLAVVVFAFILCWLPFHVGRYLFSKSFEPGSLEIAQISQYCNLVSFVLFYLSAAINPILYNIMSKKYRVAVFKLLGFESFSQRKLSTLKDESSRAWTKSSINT
Procedure: Pituitaries from ten rats were removed, the posterior pituitary discarded and the anterior pituitary placed in Hanks' Balanced Salt Solution (HBSS: without calcium chloride, w/o magnesium chloride, w/o magnesium sulfate; Gibco) containing 20 mM HEPES (Gibco) and 100 U/ml penicillin streptomycin (PS: JRH Biosciences). Under sterile conditions, pituitaries were rinsed twice then minced into small fragments with a razor blade. […] After the incubation, fragments were triturated to yield small clumps and single cells. The cells were centrifuged 1000× g for 5 min, resuspended, counted and plated at a final cell concentration of 100,000 cells/ml. Incubation media was DME low glucose media w/NaHCO3 (Gibco) containing 20 mM hepes, 100 U/ml PS and 10% FBS (Hyclone A-111-L). Cells were plated at 0.5 ml per well in 48 well plates (Falcon) and incubated at 37° C. in 5% C02 for three days. For challenges to determine release of other pituitary hormones cells were plated at 200,000 cells per ml with 2 ml per well of a Swell plate (Corning). Challenge: A (inip)bbFK-NH2 stock (or other GHRP) concentration of 1 mM was made in DMSO and diluted with warmed media approximately 30 min prior to use. The highest concentration of DMSO in media was 0.1%. Stock solutions (1 mM) of rat GHRH, somatostatin (Sigma) and GHRP antagonist HwkWfK were made fresh in media and diluted appropriately. The media used in all challenges and washing steps was DME low glucose with 20 mM Hepes, 100 U/ml PS, 10% FBS. Media was warmed to 37° C. and gassed by placing it into the incubator prior to challenge. On day three, the media was discarded and fresh media (approximately 1 ml) added for the first of three washes. After the last wash, the plate was placed back in the incubator for a 15 min pre-incubation. Then cells were washed 2× (with warmed and gassed media) and fresh 0.5 ml media were added for the second 15 min. pre-incubation. After the second pre-incubation cells were washed 2× as above and 0.5 ml of control and test solutions were added for a final 15 min incubation. After this incubation, the media were removed for subsequent GH ELISA. GH ELISA: A two-site ELISA was used to determine rat GH concentration in the media. […] After blocking and washing, standard (rat GH reference preparation: Parlow) and challenge media is diluted 1:20 prior to GH assay were added for a 1 hr room temperature incubation. STATISTICS: The mean for each group was determined and analyzed by one-way analysis of variance with a post-hoc Student-Newman-Keuls. Significance is defined as P<0.05. The EC50 was calculated using a 4-parameter curve-fit program (Kaleidagraph). Three to four independent EC50s were used to derive the mean and SEM. RIA of pituitary hormones: LH, FSH, TSH, and Prolactin were determined with commercially available kits from Amersham, and ACTH levels were determined by a RIA kit from ICN. CALCIUM FLUX EXPERIMENT: Pituitary cells were plated on fibronectin (Collaborative Research) coated two-chambered slide wells (Nunc). After four days in monolayer culture cells were rinsed three times with HBSS (Gibco) in 1% BSA and 15 mM HEPES and then incubated for 30 min at 37° C. with 5 μM Indo-1 AM (Molecular Probes, Eugene) in HBSS also containing 1% pluronic F127 (Molecular Probes). The cells were rinsed once and fresh media added for RT incubation. […] C^++ flux was imaged with a Meridian ACAS 570 using stage scanning at 21 second intervals.

[1] = Table III, formula IV compounds
[2] = Table IV, formula III compounds

SMILES | RAT IV ED50 (growth hormone secretion; Table III) [µg] | pEC50 (rat pituitary cells; [1]) | further results
CN(C)C(=O)C(Cc1ccccc1)NC(=O)[C@@H](Cc1ccc2ccccc2c1)NC(=O)[C@@H](Cc1ccc2ccccc2c1)NC(=O)C1CCNCC1 (single isomer, unassigned) [(inip) b b F dam] | 10 |  | 
NCCCCCCC(=O)N[C@H](Cc1ccc2ccccc2c1)C(=O)N[C@H](Cc1ccc2ccccc2c1)C(=O)N[C@@H](Cc1ccccc1)C(=O)N[C@@H](CCCCN)C(N)=O [(ahp) b b F K amide] (H-[Ahp][d2Nal][d2Nal]FK-NH2) | 100 | 7.46 | 
NCCCCNC(=O)[C@H](Cc1ccc2ccccc2c1)NC(=O)[C@H](Cc1ccc2ccccc2c1)NC(=O)[C@@H](Cc1ccccc1)NC(=O)CCCCN [(Ava) f B B bam, (5-aminovaleryl)-DPhe-βNal-βNal-[N-(4-aminobutyl)] amide] |  |  | pEC50 (rat pituitary cells; Table VI, retroinverso compounds of formula V): 7.66; RAT IV ED50 (growth hormone secretion; Table VI): 100 µg
NC(=O)[C@@H]1Cc2ccccc2CN1C(=O)[C@@H](Cc1ccc2ccccc2c1)NC(=O)[C@@H](Cc1ccc2ccccc2c1)NC(=O)C1CCNCC1 [(inip) b b (Tic) amide] (H-[Inp][d2Nal][d2Nal][Tic]-NH2) |  |  | RAT IV ED50 (growth hormone secretion; Table IV): 10 µg
CN(C(=O)C1CCNCC1)C(Cc1ccc2ccccc2c1)C(=O)N[C@H](Cc1ccc2ccccc2c1)C(=O)N[C@@H](Cc1ccccc1)C(=O)NC(CCCCN)C(N)=O (stereo partly drawn) [(inip) nmb b F K amide, (inip)-(N-Me-DβNal)-DβNal-Phe-Lys-amide] (H-[Inp][ξNMe2Nal][d2Nal]F[ξK]-NH2) | 0.4 | 9.57 | 
NCCCC[C@H](NC(=O)[C@H](Cc1ccccc1)NC(=O)[C@@H](Cc1ccc2ccccc2c1)NC(=O)[C@@H](Cc1c[nH]c2ccccc12)NC(=O)[C@@H](N)Cc1c[nH]cn1)C(N)=O [H w b F K amide] (H-H[dW][d2Nal]FK-NH2) | 50 | 7.82 | 
NCCCCC(=O)N[C@H](Cc1ccc2ccccc2c1)C(=O)N[C@H](Cc1ccc2ccccc2c1)C(=O)N[C@@H](Cc1ccccc1)C(=O)N[C@@H](CCCCN)C(=O)N[C@@H](Cc1ccc(O)cc1)C(N)=O [(Ava) b b F K Y amide] (H-[Ava][d2Nal][d2Nal]FKY-NH2) | 20 | 7.87 | 
NCCCNC(=O)[C@H](Cc1ccc2ccccc2c1)NC(=O)[C@@H](Cc1ccc2ccccc2c1)NC(=O)[C@@H](Cc1ccc2ccccc2c1)NC(=O)CCCN [(Ab) b b B ram, (4-Aminobutanoyl)-DβNal-DβNal-βNal-[N-(3-aminopropyl)] Amide] | 10 | 8.62 | 
NCCCC(=O)N[C@H](Cc1ccc2ccccc2c1)C(=O)N[C@H](Cc1ccc2ccccc2c1)C(=O)N[C@@H](Cc1ccccc1)C(N)=O [(Ab) b b F amide] (H-[GABA][d2Nal][d2Nal]F-NH2) |  |  | pEC50 (rat pituitary cells; [2]): 8.51; RAT IV ED50 (growth hormone secretion; Table IV): 10 µg
C[C@@](Cc1ccccc1)(NC(=O)[C@@H](Cc1ccc2ccccc2c1)NC(=O)[C@@H](Cc1ccc2ccccc2c1)NC(=O)C1CCNCC1)C(N)=O [(inip) b b amF amide] (H-[Inp][d2Nal][d2Nal][αMeF]-NH2) |  |  | pEC50 (rat pituitary cells; [2]): 9.30; RAT IV ED50 (growth hormone secretion; Table IV): 5 µg
CN(C(=O)C(Cc1ccc2ccccc2c1)NC(=O)C1CCNCC1)[C@H](Cc1ccc2ccccc2c1)C(=O)N[C@@H](Cc1ccccc1)C(=O)NC(CCCCN)C(N)=O (stereo partly drawn) [(inip) b nmb F K amide, (inip)-DβNal-(N-Me-DβNal)-Phe-Lys-amide] (H-[Inp][ξ2Nal][dNMe2Nal]F[ξK]-NH2) | 1 | 9.70 | 
O=C(N[C@H](Cc1ccc2ccccc2c1)C(=O)N[C@H](Cc1ccc2ccccc2c1)C(=O)N[C@H](CO)Cc1ccccc1)C1CCNCC1 [(inip) b b Pol, (inip)-DβNal-DβNal-(L-Phenylalanol)] (H-[Inp][d2Nal][d2Nal][Phe(ol)]) |  |  | pEC50 (rat pituitary cells; [2]): 9.70; RAT IV ED50 (growth hormone secretion; Table IV): 5 µg
CN(C(=O)C1CCNCC1)C(Cc1ccc2ccccc2c1)C(=O)N[C@H](Cc1c[nH]c2ccccc12)C(=O)N[C@@H](Cc1ccccc1)C(=O)NC(CCCCN)C(N)=O (stereo partly drawn) [(inip) nmb w F K amide, (inip)-(N-Me-DβNal)-DTrp-Phe-Lys-amide] (H-[Inp][ξNMe2Nal][dW]F[ξK]-NH2) | 0.2 | 9.70 | 
CN[C@H](Cc1ccc2ccccc2c1)C(=O)N[C@H](Cc1ccc2ccccc2c1)C(=O)N[C@@H](Cc1ccc(O)cc1)C(=O)N[C@@H](CCCCN)C(N)=O [nmb b Y K amide] (H-[dNMe2Nal][d2Nal]YK-NH2) | 500 |  | 
NCCCCCC(=O)N[C@H](Cc1ccc2ccccc2c1)C(=O)N[C@H](Cc1ccc2ccccc2c1)C(=O)N[C@@H](Cc1ccccc1)C(=O)N[C@@H](CCCCN)C(N)=O [(ahx) b b F K amide] (H-[Ahx][d2Nal][d2Nal]FK-NH2) | 250 |  | 
NCCCC[C@H](NC(=O)[C@H](Cc1ccccc1)NC(=O)[C@@H](Cc1c[nH]c2ccccc12)NC(=O)[C@@H](Cc1ccc2ccccc2c1)NC(=O)C1CCNCC1)C(N)=O [(inip) b w F K amide] (H-[Inp][d2Nal][dW]FK-NH2) | 0.070 |  | 
NC(=O)CCCNC(=O)[C@@H](Cc1ccc2ccccc2c1)NC(=O)[C@@H](Cc1ccc2ccccc2c1)NC(=O)C1CCNCC1 [(inip) b b ab amide] (H-[Inp][d2Nal][d2Nal][GABA]-NH2; N-terminus assumed) |  |  | RAT IV ED50 (growth hormone secretion; Table IV): 10 µg
O=C(N[C@H](Cc1ccc2ccccc2c1)C(=O)N[C@H](Cc1ccc2ccccc2c1)C(=O)NCCc1ccccc1)C1CCNCC1 [(inip) b b fem, (inip)-DβNal-DβNal-(N-2-phenylethyl) amide] (H-[Inp]-[d2Nal]-[d2Nal]-NHPhenethyl) |  |  | pEC50 (rat pituitary cells; [2]): 8.69
NC(=O)[C@H](Cc1ccccc1)NC(=O)[C@@H](Cc1ccccc1)NC(=O)[C@@H](Cc1ccc2ccccc2c1)NC(=O)C1CCNCC1 [(inip) b f F amide] (H-[Inp][d2Nal][dF]F-NH2) |  |  | pEC50 (rat pituitary cells; [2]): 7.10
NCCCCC(=O)N[C@H](Cc1ccc2ccccc2c1)C(=O)N[C@H](Cc1ccc2ccccc2c1)C(=O)NCCc1ccccc1 [(Ava) b b fem] (H-[Ava]-[d2Nal]-[d2Nal]-NHPhenethyl) |  |  | pEC50 (rat pituitary cells; [2]): < 6.70
C[C@@H](NC(=O)[C@@H](Cc1ccc2ccccc2c1)NC(=O)CCCCN)C(=O)N[C@@H](Cc1ccccc1)C(=O)N[C@@H](CCCCN)C(N)=O [(Ava) b a F K amide] (H-[Ava][d2Nal][dA]FK-NH2) |  | < 6.52 | 
CCCC[C@@H](NC(=O)[C@@H](Cc1ccc2ccccc2c1)NC(=O)C1CCNCC1)C(=O)N[C@@H](Cc1ccccc1)C(N)=O [(inip) b nl F amide] (H-[Inp][d2Nal][dNle]F-NH2) |  |  | pEC50 (rat pituitary cells; [2]): 7.14
O=C(N[C@H](Cc1ccc2ccccc2c1)C(=O)N[C@H](Cc1ccc2ccccc2c1)C(=O)O)C1CCNCC1 [(inip) b b acid] (H-[Inp]-[d2Nal]-[d2Nal]-OH) |  |  | pEC50 (rat pituitary cells; Table V, formula II compounds): 7.09
C[C@@H](NC(=O)CCCCN)C(=O)N[C@H](Cc1ccc2ccccc2c1)C(=O)N[C@@H](Cc1ccccc1)C(=O)N[C@@H](CCCCN)C(N)=O [(Ava) a b F K amide] (H-[Ava][dA][d2Nal]FK-NH2) |  | < 6.52 | 
